The source made the active and inactive calls. The calls are words filed in the database; no cut-off is given here.
Experiments:
HeLa = experiment: Cytotoxicity against Homo sapiens (human) HeLa cells assessed as growth inhibition after 48 hr by MTT assay; assay type: functional, cell-based
[1] = tested on: Radical scavenging activity; experiment: Antioxidant activity assessed as DPPH radical scavenging activity after 20 min by microplate ELISA reader analysis; assay type: functional
MOLT-4 = experiment: Cytotoxicity against Homo sapiens (human) MOLT4 cells assessed as growth inhibition after 48 hr by MTT assay; assay type: functional, cell-based; conditions: MOLT-4, 48 h
Staphylococcus aureus [2] = experiment: Antibacterial activity against Staphylococcus aureus 1199B overexpressing NorA assessed as reduction of ciprofloxacin MIC at MEC after 18 hr by broth checkerboard method relative to control; assay type: functional
HL-60 = experiment: Cytotoxicity against Homo sapiens (human) HL60 cells assessed as growth inhibition after 48 hr by MTT assay; assay type: functional, cell-based; conditions: HL-60, 48 h
Staphylococcus aureus [3] = experiment: Antibacterial activity against Staphylococcus aureus 1199B overexpressing NorA assessed as growth inhibition after 18 hr by broth checkerboard method; assay type: functional; conditions: read-out: MEC
PC-3 = experiment: Cytotoxicity against Homo sapiens (human) PC3 cells assessed as growth inhibition after 48 hr by MTT assay; assay type: functional, cell-based; conditions: PC-3, 48 h
Rattus norvegicus = experiment: Anti-inflammatory activity in Wistar Rattus norvegicus (rat) assessed as inhibition of carrageenan-induced paw edema at 100 mg/kg, po administered 45 min prior to carrageenan-challenge measured 45 min to 4 hr post carrageenan-challenge relative to control; assay type: functional

## O=C(/C=C/c1ccc(Br)cc1)c1ccc[nH]1
HeLa
  IC50: > 100 µM
[1]
  Activity: inactive
MOLT-4
  IC50: 49 µM
Staphylococcus aureus [2]
  fold change (FC): 0
HL-60
  IC50: 32 µM
Staphylococcus aureus [3]
  minimal effective concentration: > 50 µg/mL
PC-3
  IC50: 44 µM
Rattus norvegicus
  inhibition: inactive

## O=C(/C=C/c1ccc(Cl)cc1Cl)c1ccc[nH]1
HeLa
  IC50: 26 µM
[1]
  Activity: inactive
MOLT-4
  IC50: 13 µM
Staphylococcus aureus [2]
  fold change (FC): 0
HL-60
  IC50: 22 µM
Staphylococcus aureus [3]
  minimal effective concentration: > 50 µg/mL
PC-3
  IC50: 22 µM
Rattus norvegicus
  inhibition: inactive

## COc1ccc(OC)c(/C=C/C(=O)c2ccco2)c1
[1]
  Activity: inactive
Staphylococcus aureus [2]
  fold change (FC): 0
Staphylococcus aureus [3]
  minimal effective concentration: > 50 µg/mL
Rattus norvegicus
  inhibition: inactive

## O=C(/C=C/c1ccccc1)c1ccco1
HeLa
  IC50: > 100 µM
[1]
  Activity: inactive
MOLT-4
  IC50: > 100 µM
Staphylococcus aureus [2]
  fold change (FC): 0
HL-60
  IC50: 100 µM
Staphylococcus aureus [3]
  minimal effective concentration: > 50 µg/mL
PC-3
  IC50: > 100 µM
Rattus norvegicus
  inhibition: inactive

## COc1cc(/C=C/C(=O)c2ccco2)cc(OC)c1OC
[1]
  Activity: inactive
Staphylococcus aureus [2]
  fold change (FC): 0
Staphylococcus aureus [3]
  minimal effective concentration: > 50 µg/mL
Rattus norvegicus
  inhibition: inactive

## COc1cccc(/C=C/C(=O)c2ccco2)c1OC
[1]
  Activity: inactive
Staphylococcus aureus [2]
  fold change (FC): 4
Staphylococcus aureus [3]
  minimal effective concentration: 25 µg/mL
Rattus norvegicus
  inhibition: inactive

## O=C(/C=C/c1cccc([N+](=O)[O-])c1)c1ccco1
HeLa
  IC50: 22 µM
[1]
  Activity: inactive
MOLT-4
  IC50: 18 µM
Staphylococcus aureus [2]
  fold change (FC): 0
HL-60
  IC50: 14 µM
Staphylococcus aureus [3]
  minimal effective concentration: > 50 µg/mL
PC-3
  IC50: 14 µM
Rattus norvegicus
  inhibition: inactive

## O=C(/C=C/c1ccc(F)cc1)c1ccco1
[1]
  Activity: inactive
Staphylococcus aureus [2]
  fold change (FC): 0
Staphylococcus aureus [3]
  minimal effective concentration: > 50 µg/mL
Rattus norvegicus
  inhibition: inactive

## COc1cccc(/C=C/C(=O)c2ccc[nH]2)c1OC
[1]
  Activity: inactive
Staphylococcus aureus [2]
  fold change (FC): 4
Staphylococcus aureus [3]
  minimal effective concentration: 25 µg/mL
Rattus norvegicus
  inhibition: inactive

## CN(C)c1ccc(/C=C/C(=O)c2ccco2)cc1
HeLa
  IC50: 20 µM
[1]
  Activity: inactive
MOLT-4
  IC50: 12 µM
Staphylococcus aureus [2]
  fold change (FC): 4
HL-60
  IC50: 12 µM
Staphylococcus aureus [3]
  minimal effective concentration: 12.5 µg/mL
PC-3
  IC50: 13 µM
Rattus norvegicus
  inhibition: inactive

## O=C(/C=C/c1cccc(Cl)c1Cl)c1ccc[nH]1
[1]
  Activity: inactive
Staphylococcus aureus [2]
  fold change (FC): 0
Staphylococcus aureus [3]
  minimal effective concentration: > 50 µg/mL
Rattus norvegicus
  inhibition: inactive

## CN(C)c1ccc(/C=C/C(=O)c2ccc[nH]2)cc1
[1]
  Activity: inactive
Staphylococcus aureus [2]
  fold change (FC): 0
Staphylococcus aureus [3]
  minimal effective concentration: > 50 µg/mL
Rattus norvegicus
  inhibition: inactive

## O=C(/C=C/c1ccc(Cl)cc1)c1ccco1
HeLa
  IC50: 38 µM
[1]
  Activity: inactive
MOLT-4
  IC50: 23 µM
Staphylococcus aureus [2]
  fold change (FC): 0
HL-60
  IC50: 19 µM
Staphylococcus aureus [3]
  minimal effective concentration: > 50 µg/mL
PC-3
  IC50: 29 µM
Rattus norvegicus
  inhibition: inactive

## O=C(/C=C/c1cc([N+](=O)[O-])ccc1Cl)c1ccco1
HeLa
  IC50: > 100 µM
[1]
  Activity: inactive
MOLT-4
  IC50: 72 µM
Staphylococcus aureus [2]
  fold change (FC): 0
HL-60
  IC50: 58 µM
Staphylococcus aureus [3]
  minimal effective concentration: > 50 µg/mL
PC-3
  IC50: 62 µM
Rattus norvegicus
  inhibition: inactive

## O=C(/C=C/c1ccc2c(c1)OCO2)c1ccc[nH]1
[1]
  Activity: inactive
Staphylococcus aureus [2]
  fold change (FC): 0
Staphylococcus aureus [3]
  minimal effective concentration: > 50 µg/mL
Rattus norvegicus
  inhibition: inactive

## O=C(/C=C/c1ccc([N+](=O)[O-])cc1)c1ccc[nH]1
HeLa
  IC50: 26 µM
[1]
  Activity: inactive
MOLT-4
  IC50: 15 µM
Staphylococcus aureus [2]
  fold change (FC): 0
HL-60
  IC50: 14 µM
Staphylococcus aureus [3]
  minimal effective concentration: > 50 µg/mL
PC-3
  IC50: 13 µM
Rattus norvegicus
  inhibition: inactive

## COc1ccc(/C=C/C(=O)c2ccc[nH]2)cc1OC
[1]
  Activity: inactive
Staphylococcus aureus [2]
  fold change (FC): 0
Staphylococcus aureus [3]
  minimal effective concentration: > 50 µg/mL
Rattus norvegicus
  inhibition: inactive

## O=C(/C=C/c1cc([N+](=O)[O-])ccc1Cl)c1ccc[nH]1
HeLa
  IC50: 68 µM
[1]
  Activity: inactive
MOLT-4
  IC50: 42 µM
Staphylococcus aureus [2]
  fold change (FC): 0
HL-60
  IC50: 38 µM
Staphylococcus aureus [3]
  minimal effective concentration: > 50 µg/mL
PC-3
  IC50: 55 µM
Rattus norvegicus
  inhibition: inactive

## O=C(/C=C/c1ccc([N+](=O)[O-])cc1)c1ccco1
[1]
  Activity: inactive
Staphylococcus aureus [2]
  fold change (FC): 0
Staphylococcus aureus [3]
  minimal effective concentration: > 50 µg/mL
Rattus norvegicus
  inhibition: inactive

## O=C(/C=C/c1ccc(Cl)cc1)c1ccc[nH]1
HeLa
  IC50: 25 µM
[1]
  Activity: inactive
MOLT-4
  IC50: 22 µM
Staphylococcus aureus [2]
  fold change (FC): 0
HL-60
  IC50: 13 µM
Staphylococcus aureus [3]
  minimal effective concentration: > 50 µg/mL
PC-3
  IC50: 18 µM
Rattus norvegicus
  inhibition: inactive

## O=C(/C=C/c1ccccc1Cl)c1ccco1
HeLa
  IC50: 26 µM
[1]
  Activity: inactive
MOLT-4
  IC50: 25 µM
Staphylococcus aureus [2]
  fold change (FC): 0
HL-60
  IC50: 12 µM
Staphylococcus aureus [3]
  minimal effective concentration: > 50 µg/mL
PC-3
  IC50: 14 µM
Rattus norvegicus
  inhibition: inactive

## COc1ccc(/C=C/C(=O)c2ccco2)cc1
[1]
  Activity: inactive
Staphylococcus aureus [2]
  fold change (FC): 0
Staphylococcus aureus [3]
  minimal effective concentration: > 50 µg/mL
Rattus norvegicus
  inhibition: inactive

## O=C(/C=C/c1ccc2c(c1)OCO2)c1ccco1
[1]
  Activity: inactive
Staphylococcus aureus [2]
  fold change (FC): 0
Staphylococcus aureus [3]
  minimal effective concentration: > 50 µg/mL
Rattus norvegicus
  inhibition: inactive

## O=C(/C=C/c1ccccc1Br)c1ccco1
[1]
  Activity: inactive
Staphylococcus aureus [2]
  fold change (FC): 0
Staphylococcus aureus [3]
  minimal effective concentration: > 50 µg/mL
Rattus norvegicus
  inhibition: inactive

## O=C(/C=C/c1c(Cl)cccc1Cl)c1ccc[nH]1
[1]
  Activity: inactive
Staphylococcus aureus [2]
  fold change (FC): 0
Staphylococcus aureus [3]
  minimal effective concentration: > 50 µg/mL
Rattus norvegicus
  inhibition: inactive

## O=C(/C=C/c1ccccc1)c1ccc[nH]1
HeLa
  IC50: > 100 µM
[1]
  Activity: inactive
MOLT-4
  IC50: > 100 µM
Staphylococcus aureus [2]
  fold change (FC): 0
HL-60
  IC50: > 100 µM
Staphylococcus aureus [3]
  minimal effective concentration: > 50 µg/mL
PC-3
  IC50: > 100 µM
Rattus norvegicus
  inhibition: inactive

## COc1ccc(/C=C/C(=O)c2ccco2)cc1OC
[1]
  Activity: inactive
Staphylococcus aureus [2]
  fold change (FC): 0
Staphylococcus aureus [3]
  minimal effective concentration: > 50 µg/mL
Rattus norvegicus
  inhibition in vivo at 100 mg/kg: 23%

## COc1cccc(OC)c1/C=C/C(=O)c1ccc[nH]1
[1]
  Activity: inactive
Staphylococcus aureus [2]
  fold change (FC): 0
Staphylococcus aureus [3]
  minimal effective concentration: > 50 µg/mL
Rattus norvegicus
  inhibition: inactive

## COc1cccc(/C=C/C(=O)c2ccc[nH]2)c1
HeLa
  IC50: 30 µM
[1]
  Activity: inactive
MOLT-4
  IC50: 28 µM
Staphylococcus aureus [2]
  fold change (FC): 0
HL-60
  IC50: 16 µM
Staphylococcus aureus [3]
  minimal effective concentration: > 50 µg/mL
PC-3
  IC50: 24 µM
Rattus norvegicus
  inhibition: inactive

## COc1ccc(/C=C/C(=O)c2ccc[nH]2)cc1
[1]
  Activity: inactive
Staphylococcus aureus [2]
  fold change (FC): 2
Staphylococcus aureus [3]
  minimal effective concentration: 25 µg/mL
Rattus norvegicus
  inhibition: inactive

## COc1ccc(/C=C/C(=O)c2ccc[nH]2)c(OC)c1
[1]
  Activity: inactive
Staphylococcus aureus [2]
  fold change (FC): 2
Staphylococcus aureus [3]
  minimal effective concentration: 25 µg/mL
Rattus norvegicus
  inhibition: inactive

## O=C(/C=C/c1ccccc1Cl)c1ccc[nH]1
[1]
  Activity: inactive
Staphylococcus aureus [2]
  fold change (FC): 4
Staphylococcus aureus [3]
  minimal effective concentration: 25 µg/mL
Rattus norvegicus
  inhibition: inactive

## O=C(/C=C/c1ccccc1Br)c1ccc[nH]1
HeLa
  IC50: 44 µM
[1]
  Activity: inactive
MOLT-4
  IC50: 38 µM
Staphylococcus aureus [2]
  fold change (FC): 4
HL-60
  IC50: 42 µM
Staphylococcus aureus [3]
  minimal effective concentration: 25 µg/mL
PC-3
  IC50: 44 µM
Rattus norvegicus
  inhibition: inactive

## COC(=O)[C@H]1[C@H]2C[C@@H]3c4[nH]c5cc(OC)ccc5c4CCN3C[C@H]2C[C@@H](OC(=O)c2cc(OC)c(OC)c(OC)c2)[C@@H]1OC [RESERPINE]
Staphylococcus aureus [2]
  fold change (FC): 0
Staphylococcus aureus [3]
  minimal effective concentration: 25 µg/mL

## O=C(/C=C/c1ccc(F)cc1)c1ccc[nH]1
[1]
  Activity: inactive
Staphylococcus aureus [2]
  fold change (FC): 2
Staphylococcus aureus [3]
  minimal effective concentration: 25 µg/mL
Rattus norvegicus
  inhibition: inactive

## O=C(/C=C/c1cccc([N+](=O)[O-])c1)c1ccc[nH]1
HeLa
  IC50: 32 µM
[1]
  Activity: inactive
MOLT-4
  IC50: 22 µM
Staphylococcus aureus [2]
  fold change (FC): 0
HL-60
  IC50: 20 µM
Staphylococcus aureus [3]
  minimal effective concentration: > 50 µg/mL
PC-3
  IC50: 23 µM
Rattus norvegicus
  inhibition: inactive

## COc1ccc(CCN(C)CCCC(C#N)(c2ccc(OC)c(OC)c2)C(C)C)cc1OC (configuration not stated) [VERAPAMIL]
Staphylococcus aureus [2]
  fold change (FC): 2
Staphylococcus aureus [3]
  minimal effective concentration: 50 µg/mL

## O=C(/C=C/c1ccc(Br)cc1)c1ccco1
HeLa
  IC50: > 100 µM
[1]
  Activity: inactive
MOLT-4
  IC50: 62 µM
Staphylococcus aureus [2]
  fold change (FC): 2
HL-60
  IC50: 48 µM
Staphylococcus aureus [3]
  minimal effective concentration: 25 µg/mL
PC-3
  IC50: 58 µM
Rattus norvegicus
  inhibition: inactive

From ChEMBL document CHEMBL3044639, “Synthesis and biologic activities of some novel heterocyclic chalcone derivatives” (Med Chem Res, 2013)
